Where “and” joins values, the source holds several entries; their conditions need not be identical. Identical values can stand only once.
Key:
human OAT1 = target: T1, human OAT1 (Homo sapiens, UniProt Q4U2R8); test: Uptake transporter substrate feasibility assay, OAT1; format: in vitro ADME; set-up: key to Substrate: NIO: No interaction observed
T1 construct: expressed in transfected cells; host or cells: CHO (protocol UPT-CHO-OAT1-Tenofovir; control: parental CHO-K1)
T1 sequence (Q4U2R8 1-563): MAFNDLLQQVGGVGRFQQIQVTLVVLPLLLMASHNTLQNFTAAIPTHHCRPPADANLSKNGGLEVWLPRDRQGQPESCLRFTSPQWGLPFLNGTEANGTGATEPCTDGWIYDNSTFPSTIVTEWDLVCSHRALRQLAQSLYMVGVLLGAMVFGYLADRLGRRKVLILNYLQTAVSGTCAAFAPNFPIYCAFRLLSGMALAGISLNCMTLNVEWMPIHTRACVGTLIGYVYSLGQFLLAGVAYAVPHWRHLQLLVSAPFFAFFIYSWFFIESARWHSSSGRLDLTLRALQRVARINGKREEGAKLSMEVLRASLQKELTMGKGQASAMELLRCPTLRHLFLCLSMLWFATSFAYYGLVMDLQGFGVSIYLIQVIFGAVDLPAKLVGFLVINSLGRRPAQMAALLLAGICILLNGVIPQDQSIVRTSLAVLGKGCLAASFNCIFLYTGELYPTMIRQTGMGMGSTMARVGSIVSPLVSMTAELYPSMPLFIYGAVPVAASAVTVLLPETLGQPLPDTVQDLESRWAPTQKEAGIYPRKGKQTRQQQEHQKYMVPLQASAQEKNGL
Description: (§1) Uptake experiments were performed using CHO, MDCKII, or HEK293 cells stably expressing the respective uptake transporters.
Cells were cultured at 37±1° C. in an atmosphere of 95:5 air:CO2 as described in Table 4 and were plated onto standard 24-well tissue culture plates at 2×10^5 cells/well. The uptake of the TA was determined using cells overexpressing the respective uptake transporter and control cells, at two incubation time points (2 and 20 min) and at two concentrations (1 and 10 μM) of TA to determine whether or not the TA was actively taken up into the cells.
Before the experiment, the medium was removed and the cells were washed twice with 300 μl of HK buffer (pH 7.4) (prepared from Sigma chemicals). Cellular uptake of TA into the cells was measured by adding 300 μl of HK buffer containing TA and incubating them at 37±1° C. Reactions were quenched by removing the HK buffer containing the TA and the cells were washed twice with 300 μl of HK buffer. Cells were lysed by adding 300 μl of MeOH:H2O (2:1) and incubated for 20 minutes at 4±1° C. The amount of TA in the cell lysate was determined by LC-MS/MS. The amount of protein in each well was quantified using the BCA kit for protein determination (Sigma-Aldrich, St Louis, Mo., USA). Uptake of the probe substrate in control cells provided background activity values for all data points. Incubation without reference inhibitor (solvent only) provided 100% activity values. A reference inhibitor served as positive control for inhibition.
The fold accumulation value was defined as the ratio of uptake of TA or probe substrate into transfected and control cells:
[formula] UPTTRP: accumulated amount of TA or probe substrate in transfected cells normalized by protein content [pmol/mg protein] UPTCTL: accumulated amount of TA or probe substrate in control cells normalized by protein content [pmol/mg protein]
If the fold accumulation is >2 and can be inhibited by a known inhibitor of the transporter, the TA can be considered to be a substrate of the respective transporter.

[1] = Physical properties of the drug substance; format: physicochemical
human OCT2 = target: T2, human OCT2 (Homo sapiens, UniProt O15244); test: Uptake transporter inhibition assay, OCT2; format: in vitro ADME
T2 construct: expressed in transfected cells; host or cells: CHO (protocol UPT-CHO-OCT2-Metf; control: parental CHO-K1)
T2 sequence (O15244 1-555): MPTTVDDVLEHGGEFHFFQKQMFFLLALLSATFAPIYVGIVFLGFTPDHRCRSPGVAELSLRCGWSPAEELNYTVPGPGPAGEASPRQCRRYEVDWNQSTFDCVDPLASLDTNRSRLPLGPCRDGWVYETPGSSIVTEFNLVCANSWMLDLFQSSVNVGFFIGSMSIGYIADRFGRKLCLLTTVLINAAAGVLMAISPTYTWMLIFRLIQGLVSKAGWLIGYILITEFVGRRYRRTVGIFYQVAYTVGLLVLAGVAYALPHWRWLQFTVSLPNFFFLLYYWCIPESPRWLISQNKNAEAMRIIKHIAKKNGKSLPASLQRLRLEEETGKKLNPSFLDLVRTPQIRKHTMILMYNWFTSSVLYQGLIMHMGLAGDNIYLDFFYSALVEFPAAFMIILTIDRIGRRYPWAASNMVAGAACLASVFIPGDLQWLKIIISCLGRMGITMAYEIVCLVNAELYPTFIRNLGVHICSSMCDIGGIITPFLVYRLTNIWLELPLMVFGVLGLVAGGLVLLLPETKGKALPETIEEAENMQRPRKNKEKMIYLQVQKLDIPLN
Description: as §1
Cells were cultured at 37±1° C. in an atmosphere of 95:5 air:CO2 and were plated onto standard 96-well tissue culture plates at the cell number described in table 4.
Before the experiment, the medium was removed and the cells were washed twice with 100 μl of HK buffer at pH 7.4 (prepared from Sigma chemicals, Sigma-Aldrich, St Louis, Mo.). Uptake experiments were carried out at 37±1° C. in 50 μl of HK buffer (pH 7.4) containing the probe substrate and the TA or vehicle control (water).
After the experiment, cells were washed twice with ice cold, 100 μl of HK buffer and lysed with 50 μl of 0.1 M NaOH (1 mM CaCl2) in 5% SDS in the case of OATP1B3). Fluo-3 transport (OATP1B3) was determined by measuring fluorescence using 485 nm and 520 nm as the excitation and emission wavelengths, respectively. Radiolabelled probe substrate transport was determined by measuring an aliquot (35 μl) from each well for liquid scintillation counting.
Uptake of the probe substrate in control cells provided background activity values for all data points. […]
The amount of translocated probe substrate was determined for each well in cpm or RFU. Relative activities were calculated from the equation: […]
In uptake transporter inhibition assays, the IC50 (μM) was calculated, where applicable. […]

With `[O-][n+]1cccc(C(Cl)=NOCC(O)CN2CCCCC2)c1` (stereo not drawn) [Arimoclomol, N-[2-hydroxy-3-(1-piperidinyl)-propoxy]-pyridine-1-oxide-3-carboximidoyl chloride] the “Substrate of the transporter (in words)” value (human OAT1) was “not a substrate”, the Fold accumulation (human OAT1; 1 μM, 2 min) was 0.77 and the Fold accumulation (human OAT1; 1 μM, 20 min) was 0.75. The Fold accumulation (human OAT1; 10 μM, 2 min) was 0.56, the Fold accumulation (human OAT1; 10 μM, 20 min) was 0.73 and the Fold accumulation (human OAT1; 1 and 10 μM, 2 and 20 min) was less than 2. For the same compound, the Substrate (human OAT1; Table 2) was “NIO”, the “Carr's Index” value ([1]; drug substance) was 44.4% and the bulk density ([1]; drug substance) was 0.214 g/cm3. The tapped density ([1]; following 250 taps) was 0.386 g/cm3, the “Inhibitor of the OCT2 transporter (in words)” value (human OCT2) was “inhibitor” and the IC50 (human OCT2; OCT2-mediated metformin (10 μM) uptake, CHO cells) was 10 µM and 9.72 µM.
